Values quoted from earlier work, collected in patent US8501405B2, “Real-time sequencing methods and systems” (Pacific Biosciences of California, Inc., priority 2009, dated 2013).
Like-named read-outs stand apart in the source and are kept apart here. Blank lines part the entries; values can stand above or below the molecule they belong to.

How the values were obtained:
[1] = not given; remark: listed apart in the source
[2] = not given; remark: listed apart in the source
[3] = DNA polymerases with reverse transcriptase activity; available values for DNA-dependent DNA polymerization
[4] = DNA polymerases with reverse transcriptase activity, available values for DNA-dependent DNA polymerization
[5] = reverse transcriptases and RNA-dependent RNA polymerases, * wild-type or published mutants

B1: phi6: RNA-dependent RNA polymerase (protein, UniProt P11124 2-665, looked up)
RNA-directed RNA polymerase: PRRAPAFPLSDIKAQMLFANNIKAQQASKRSFKEGAIETYEGLLSVDPRFLSFKNELSRYLTDHFPANVDEYGRVYGNGVRTNFFGMRHMNGFPMIPATWPLASNLKKRADADLADGPVSERDNLLFRAAVRLMFSDLEPVPLKIRKGSSTCIPYFSNDMGTKIEIAERALEKAEEAGNLMLQGKFDDAYQLHQMGGAYYVVYRAQSTDAITLDPKTGKFVSKDRMVADFEYAVTGGEQGSLFAASKDASRLKEQYGIDVPDGFFCERRRTAMGGPFALNAPIMAVAQPVRNKIYSKYAYTFHHTTRLNKEEKVKEWSLCVATDVSDHDTFWPGWLRDLICDELLNMGYAPWWVKLFETSLKLPVYVGAPAPEQGHTLLGDPSNPDLEVGLSSGQGATDLMGTLLMSITYLVMQLDHTAPHLNSRIKDMPSACRFLDSYWQGHEEIRQISKSDDAILGWTKGRALVGGHRLFEMLKEGKVNPSPYMKISYEHGGAFLGDILLYDSRREPGSAIFVGNINSMLNNQFSPEYGVQSGVRDRSKRKRPFPGLAWASMKDTYGACPIYSDVLEAIERCWWNAFGESYRAYREDMLKRDTLELSRYVASMARQAGLAELTPIDLEVLADPNKLQYKWTEADVSANIHEVLMHGVSVEKTERFLRSVMPR
Processivity (bases) [5]: 13,500 bases
Maximum speed (bases/s) [1, 5]: 120 bases/s
Strand-displacement DNA synthesis ([2]; reverse transcriptases and RNA-dependent RNA polymerases): yes

B2: Thermus thermophilus: DNA polymerase with reverse transcriptase activity (protein, UniProt P52028 1-834, looked up)
DNA polymerase I, thermostable: MEAMLPLFEPKGRVLLVDGHHLAYRTFFALKGLTTSRGEPVQAVYGFAKSLLKALKEDGYKAVFVVFDAKAPSFRHEAYEAYKAGRAPTPEDFPRQLALIKELVDLLGFTRLEVPGYEADDVLATLAKKAEKEGYEVRILTADRDLYQLVSDRVAVLHPEGHLITPEWLWEKYGLRPEQWVDFRALVGDPSDNLPGVKGIGEKTALKLLKEWGSLENLLKNLDRVKPENVREKIKAHLEDLRLSLELSRVRTDLPLEVDLAQGREPDREGLRAFLERLEFGSLLHEFGLLEAPAPLEEAPWPPPEGAFVGFVLSRPEPMWAELKALAACRDGRVHRAADPLAGLKDLKEVRGLLAKDLAVLASREGLDLVPGDDPMLLAYLLDPSNTTPEGVARRYGGEWTEDAAHRALLSERLHRNLLKRLEGEEKLLWLYHEVEKPLSRVLAHMEATGVRLDVAYLQALSLELAEEIRRLEEEVFRLAGHPFNLNSRDQLERVLFDELRLPALGKTQKTGKRSTSAAVLEALREAHPIVEKILQHRELTKLKNTYVDPLPSLVHPRTGRLHTRFNQTATATGRLSSSDPNLQNIPVRTPLGQRIRRAFVAEAGWALVALDYSQIELRVLAHLSGDENLIRVFQEGKDIHTQTASWMFGVPPEAVDPLMRRAAKTVNFGVLYGMSAHRLSQELAIPYEEAVAFIERYFQSFPKVRAWIEKTLEEGRKRGYVETLFGRRRYVPDLNARVKSVREAAERMAFNMPVQGTAADLMKLAMVKLFPRLREMGARMLLQVHDELLLEAPQARAEEVAALAKEAMEKAYPLAVPLEVEVGMGEDWLSAKG
Processivity (bases) [4]: 300 bases
Maximum speed (bases/s) [1, 4]: 120 bases/s

Further lines, with some results ahead:

Strand-displacement DNA synthesis [2, 4]: yes (degrades
Molecule: E. coli pol I: DNA polymerase with reverse transcriptase activity
Processivity (bases) [4]: ~50 bases
Maximum speed (bases/s) [1, 4]: 17 bases/s

Strand-displacement DNA synthesis [2, 4]: yes
Molecule: phi29: DNA polymerase with reverse transcriptase activity
Processivity (bases) [4]: >70,000 bases
Maximum speed (bases/s) [1, 4]: 100 bases/s
Activity with phospholinked nucleotides [3]: yes
